# In patent US12077503B2, “Substituted cyclic amides and their use as herbicides” (FMC CORPORATION, priority 2015, dated 2024):
# Where two headings read alike, the source gives them in different places.
# What was measured:
# Assay type in all cases: in vivo
# [1] = tested on: sedge, umbrella (small-flower umbrella sedge, Cyperus difformis); experiment: Test B flooded paddy test; conditions: Cyperus difformis, Flood, 250 g ai/ha, read-out: Sedge, Umbrella plant response rating
# Procedure, shortened: (§1)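 Percent control, visually estimated after 13–15 d in the greenhouse on a 0–100 basis, compares treated pots with untreated ones; compound was put into paddy water 3 cm above the soil when plants had two leaves.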
# [2] = tested on: ducksalad (Heteranthera limosa); experiment: Test B flooded paddy test; conditions: Heteranthera limosa, Flood, 250 g ai/ha; scale of 0 to 100 where 0 is no effect and 100 is complete control; read-out: Ducksalad plant response rating
# Procedure, shortened: as §1
# [3] = tested on: rice (Oryra sativa); experiment: Test B flooded paddy test; conditions: Oryza sativa, Flood, 250 g ai/ha; scale of 0 to 100 where 0 is no effect and 100 is complete control; read-out: Rice plant response rating
# Procedure, shortened: as §1
# [4] = tested on: barnyardgrass (Echinochloa crus-galli); experiment: Test B flooded paddy test; conditions: Echinochloa crus-galli, Flood, 250 g ai/ha; scale of 0 to 100 where 0 is no effect and 100 is complete control; read-out: Barnyardgrass plant response rating
# Procedure, shortened: as §1
# [5] = tested on: pigweed (Amaranthus retroflexus); experiment: Test A preemergence; conditions: Amaranthus retroflexus, pre-emergence, 240 h; for pest or weed control at 125 g/ha: 125 g ai/ha, visual injury rating after approximately 10 d, read-out: Pigweed plant response rating (0 to 100 scale, 0 is no effect, 100 is complete control); for pest or weed control at 500 g/ha: 500 g ai/ha, preemergence, visual injury rating about 10 d after treatment, read-out: Pigweed plant response rating
# [6] = tested on: ragweed (common ragweed, Ambrosia elatior); experiment: Test A preemergence; conditions: Ambrosia artemisiifolia, pre-emergence, 240 h; for pest or weed control at 125 g/ha: 125 g ai/ha, visual injury rating after approximately 10 d, read-out: Ragweed plant response rating (0 to 100 scale, 0 is no effect, 100 is complete control); for pest or weed control at 500 g/ha: 500 g ai/ha, preemergence, visual injury rating about 10 d after treatment, read-out: Ragweed plant response rating
# Procedure, shortened: (§2)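 Treatment is preemergence as a directed soil spray after planting, or postemergence at the one- to two-leaf stage, with test chemical in a non-phytotoxic solvent mixture plus surfactant. Plants stay in the greenhouse about 10 d before visual injury scoring on a 0 to 100 scale versus untreated controls.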
# [7] = tested on: Kochia (Kochia scoparia); experiment: Test A preemergence; conditions: Bassia scoparia, pre-emergence, 240 h; for pest or weed control at 125 g/ha: 125 g ai/ha, visual injury rating after approximately 10 d, read-out: Kochia plant response rating (0 to 100 scale, 0 is no effect, 100 is complete control); for pest or weed control at 500 g/ha: 500 g ai/ha, preemergence, visual injury rating about 10 d after treatment, read-out: Kochia plant response rating
# Procedure, shortened: as §2
# [8] = tested on: giant foxtail (Setaria faberii); experiment: Test A preemergence; conditions: Setaria faberi, pre-emergence, 240 h; for pest or weed control at 125 g/ha: 125 g ai/ha, visual injury rating after approximately 10 d, read-out: Foxtail, Giant plant response rating (0 to 100 scale, 0 is no effect, 100 is complete control); for pest or weed control at 500 g/ha: 500 g ai/ha, preemergence, visual injury rating about 10 d after treatment, read-out: Foxtail, Giant plant response rating
# Procedure, shortened: as §2
# [9] = tested on: ryegrass, Italian (Italian ryegrass, Lolium multiflorum); experiment: Test A preemergence; conditions: Lolium multiflorum, pre-emergence, 240 h; for pest or weed control at 125 g/ha: 125 g ai/ha, visual injury rating after approximately 10 d, read-out: Ryegrass, Italian plant response rating (0 to 100 scale, 0 is no effect, 100 is complete control); for pest or weed control at 500 g/ha: 500 g ai/ha, preemergence, visual injury rating about 10 d after treatment, read-out: Ryegrass, Italian plant response rating
# Procedure, shortened: as §2
# [10] = tested on: barnyardgrass (Echinochloa crus-galli); experiment: Test A preemergence; conditions: Echinochloa crus-galli, pre-emergence, 240 h; for pest or weed control at 125 g/ha: 125 g ai/ha, visual injury rating after approximately 10 d, read-out: Barnyardgrass plant response rating (0 to 100 scale, 0 is no effect, 100 is complete control); for pest or weed control at 500 g/ha: 500 g ai/ha, preemergence, visual injury rating about 10 d after treatment, read-out: Barnyardgrass plant response rating
# Procedure, shortened: as §2
# [11] = tested on: wheat (Triticum aestivum); experiment: Test A postemergence; conditions: Triticum aestivum, post-emergence, 240 h, Postemergence, read-out: Plant response rating, Wheat; for plant injury at 125 g/ha: 125 g ai/ha, visual injury after approximately 10 d, 0 to 100 scale where 0 is no effect and 100 is complete control
# Procedure, shortened: as §2
# [12] = tested on: ragweed (common ragweed, Ambrosia elatior); experiment: Test A postemergence; conditions: Ambrosia artemisiifolia, post-emergence, 240 h, Postemergence, read-out: Plant response rating, Ragweed; for pest or weed control at 125 g/ha: 125 g ai/ha, visual injury after approximately 10 d, 0 to 100 scale where 0 is no effect and 100 is complete control
# Procedure, shortened: as §2
# [13] = tested on: giant foxtail (Setaria faberii); experiment: Test A postemergence; conditions: Setaria faberi, post-emergence, 240 h, Postemergence, read-out: Plant response rating, Foxtail, Giant; for pest or weed control at 125 g/ha: 125 g ai/ha, visual injury after approximately 10 d, 0 to 100 scale where 0 is no effect and 100 is complete control
# Procedure, shortened: as §2
# [14] = tested on: ryegrass, Italian (Italian ryegrass, Lolium multiflorum); experiment: Test A postemergence; conditions: Lolium multiflorum, post-emergence, 240 h, Postemergence, read-out: Plant response rating, Ryegrass, Italian; for pest or weed control at 125 g/ha: 125 g ai/ha, visual injury after approximately 10 d, 0 to 100 scale where 0 is no effect and 100 is complete control
# Procedure, shortened: as §2
# [15] = scale of 0 to 100 where 0 is no effect and 100 is complete control
# [16] = 31 g ai/ha, visual injury after approx. 10 d, 0 to 100 scale, 0 no effect, 100 complete control
# [17] = 0 to 100 scale (0 no effect, 100 complete control)
smiles,measurement,setting,value
CCOc1cc([C@H]2CN(C)C(=O)[C@@H]2C(=O)Nc2cccc(F)c2F)cc(C(F)(F)F)c1 [Compound 971],pest or weed control at 250 g/ha,[1]; [15],0%
same,pest or weed control at 250 g/ha,[2],85%
same,pest or weed control at 250 g/ha,[3],45%
same,pest or weed control at 250 g/ha,[4],60%
same,pest or weed control at 125 g/ha,[5]; Preemergence,20%
same,pest or weed control at 31 g/ha,"[5]; Preemergence, 31 g ai/ha, 0 to 100 scale (0 no effect, 100 complete control), read-out: Plant response rating, Pigweed",20%
same,pest or weed control at 125 g/ha,[6]; Preemergence,20%
same,pest or weed control at 31 g/ha,"[6]; Preemergence, 31 g ai/ha, 0 to 100 scale (0 no effect, 100 complete control), read-out: Plant response rating, Ragweed",0%
same,pest or weed control at 125 g/ha,[7]; Preemergence,0%
same,pest or weed control at 31 g/ha,"[7]; Preemergence, 31 g ai/ha, 0 to 100 scale (0 no effect, 100 complete control), read-out: Plant response rating, Kochia",0%
same,pest or weed control at 125 g/ha,[8]; Preemergence,90%
same,pest or weed control at 31 g/ha,"[8]; Preemergence, 31 g ai/ha, 0 to 100 scale (0 no effect, 100 complete control), read-out: Plant response rating, Foxtail, Giant",70%
same,pest or weed control at 125 g/ha,[9]; Preemergence,80%
same,pest or weed control at 31 g/ha,"[9]; Preemergence, 31 g ai/ha, 0 to 100 scale (0 no effect, 100 complete control), read-out: Plant response rating, Ryegrass, Italian",50%
same,pest or weed control at 125 g/ha,[10]; Preemergence,90%
same,pest or weed control at 31 g/ha,"[10]; Preemergence, 31 g ai/ha, 0 to 100 scale (0 no effect, 100 complete control), read-out: Plant response rating, Barnyardgrass",70%
same,plant injury at 125 g/ha,[11],50%
same,plant injury at 31 g/ha,[11]; [16],30%
same,pest or weed control at 125 g/ha,[12],0%
same,pest or weed control at 31 g/ha,[12]; [16],0%
same,pest or weed control at 125 g/ha,[13],80%
same,pest or weed control at 31 g/ha,[13]; [16],80%
same,pest or weed control at 125 g/ha,[14],50%
same,pest or weed control at 31 g/ha,[14]; [16],20%
Cc1ccc([C@H]2CCNC(=O)[C@@H]2C(=O)Nc2cccc(F)c2F)cc1 [Compound 973],pest or weed control at 250 g/ha,[1]; [15],0%
same,pest or weed control at 250 g/ha,[2],100%
same,pest or weed control at 250 g/ha,[3],0%
same,pest or weed control at 250 g/ha,[4],0%
same,pest or weed control at 125 g/ha,[5]; Preemergence,0%
same,pest or weed control at 500 g/ha,[5]; [17],0%
same,pest or weed control at 125 g/ha,[6]; Preemergence,0%
same,pest or weed control at 500 g/ha,[6]; [17],70%
same,pest or weed control at 125 g/ha,[7]; Preemergence,0%
same,pest or weed control at 500 g/ha,[7]; [17],60%
same,pest or weed control at 125 g/ha,[8]; Preemergence,90%
same,pest or weed control at 500 g/ha,[8]; [17],90%
same,pest or weed control at 125 g/ha,[9]; Preemergence,0%
same,pest or weed control at 500 g/ha,[9]; [17],30%
same,pest or weed control at 125 g/ha,[10]; Preemergence,90%
same,pest or weed control at 500 g/ha,[10]; [17],90%
same,plant injury at 125 g/ha,[11],0%
same,pest or weed control at 125 g/ha,[12],0%
same,pest or weed control at 125 g/ha,[13],70%
same,pest or weed control at 125 g/ha,[14],20%
CSc1ccccc1NC(=O)[C@H]1C(=O)NC[C@@H]1c1cc(F)cc(Cl)c1 [Compound 977],pest or weed control at 250 g/ha,[1]; [15],0%
same,pest or weed control at 250 g/ha,[2],100%
same,pest or weed control at 250 g/ha,[3],15%
same,pest or weed control at 250 g/ha,[4],15%
same,pest or weed control at 125 g/ha,[5]; Preemergence,40%
same,pest or weed control at 500 g/ha,[5]; [17],70%
same,pest or weed control at 125 g/ha,[6]; Preemergence,70%
same,pest or weed control at 500 g/ha,[6]; [17],100%
same,pest or weed control at 125 g/ha,[7]; Preemergence,90%
same,pest or weed control at 500 g/ha,[7]; [17],90%
same,pest or weed control at 125 g/ha,[8]; Preemergence,90%
same,pest or weed control at 500 g/ha,[8]; [17],90%
same,pest or weed control at 125 g/ha,[9]; Preemergence,0%
same,pest or weed control at 500 g/ha,[9]; [17],40%
same,pest or weed control at 125 g/ha,[10]; Preemergence,90%
same,pest or weed control at 500 g/ha,[10]; [17],90%
same,plant injury at 125 g/ha,[11],0%
same,pest or weed control at 125 g/ha,[12],20%
same,pest or weed control at 125 g/ha,[13],90%
same,pest or weed control at 125 g/ha,[14],0%
CN1C[C@H](c2cc(F)cc(Cl)c2)[C@@H](C(=O)Nc2ccccc2S(C)(=O)=O)C1=O [Compound 979],pest or weed control at 250 g/ha,[1]; [15],0%
same,pest or weed control at 250 g/ha,[2],100%
same,pest or weed control at 250 g/ha,[3],0%
same,pest or weed control at 250 g/ha,[4],60%
same,pest or weed control at 125 g/ha,[5]; Preemergence,40%
same,pest or weed control at 500 g/ha,[5]; [17],90%
same,pest or weed control at 125 g/ha,[6]; Preemergence,50%
same,pest or weed control at 500 g/ha,[6]; [17],90%
same,pest or weed control at 125 g/ha,[7]; Preemergence,50%
same,pest or weed control at 500 g/ha,[7]; [17],90%
same,pest or weed control at 125 g/ha,[8]; Preemergence,90%
same,pest or weed control at 500 g/ha,[8]; [17],100%
same,pest or weed control at 125 g/ha,[9]; Preemergence,50%
same,pest or weed control at 500 g/ha,[9]; [17],60%
same,pest or weed control at 125 g/ha,[10]; Preemergence,90%
same,pest or weed control at 500 g/ha,[10]; [17],90%
same,plant injury at 125 g/ha,[11],50%
same,pest or weed control at 125 g/ha,[12],20%
same,pest or weed control at 125 g/ha,[13],90%
same,pest or weed control at 125 g/ha,[14],20%
COc1ccc([C@H]2CN(C)C(=O)[C@@H]2C(=O)Nc2ccccc2SC)cc1C(F)(F)F [Compound 991],pest or weed control at 250 g/ha,[1]; 0 to 100 scale where 0 is no effect and 100 is complete control,0%
same,pest or weed control at 250 g/ha,[2],40%
same,pest or weed control at 250 g/ha,[3],15%
same,pest or weed control at 250 g/ha,[4],0%
same,pest or weed control at 125 g/ha,[5]; Preemergence,60%
same,pest or weed control at 500 g/ha,[5]; [17],50%
same,pest or weed control at 125 g/ha,[6]; Preemergence,0%
same,pest or weed control at 500 g/ha,[6]; [17],30%
same,pest or weed control at 125 g/ha,[7]; Preemergence,0%
same,pest or weed control at 500 g/ha,[7]; [17],60%
same,pest or weed control at 125 g/ha,[8]; Preemergence,90%
same,pest or weed control at 500 g/ha,[8]; [17],90%
same,pest or weed control at 125 g/ha,[9]; Preemergence,0%
same,pest or weed control at 500 g/ha,[9]; [17],50%
same,pest or weed control at 125 g/ha,[10]; Preemergence,70%
same,pest or weed control at 500 g/ha,[10]; [17],90%
same,plant injury at 125 g/ha,[11],0%
same,pest or weed control at 125 g/ha,[12],0%
same,pest or weed control at 125 g/ha,[13],80%
same,pest or weed control at 125 g/ha,[14],0%
